Tests used:
bedstraw = experiment: Test B pre/postemergence bedstraw; type: in vivo, Galium aparine
Method in brief: (§1)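 Test chemicals in a non-phytotoxic solvent mixture with surfactant were sprayed preemergence onto planted seeds and postemergence onto plants 2 to 18 cm tall (1- to 4-leaf stage). After twelve to sixteen days in a greenhouse, injury was visually rated against untreated controls from 0 (no effect) to 10 (complete control).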

blackgrass = experiment: Test B pre/postemergence blackgrass; type: in vivo, Alopecurus myosuroides
Method in brief: as §1

surinam grass = experiment: Test B pre/postemergence surinam grass; type: in vivo, Brachiaria decumbens
Method in brief: as §1

cocklebur = experiment: Test B pre/postemergence cocklebur; type: in vivo, Xanthium strumarium
Method in brief: as §1

corn = experiment: Test B pre/postemergence corn; type: in vivo, Zea mays
Method in brief: as §1

crabgrass = experiment: Test B pre/postemergence crabgrass; type: in vivo, Digitaria sanguinalis
Method in brief: as §1

giant foxtail = experiment: Test B pre/postemergence giant foxtail; type: in vivo, Setaria faberii
Method in brief: as §1

morningglory = experiment: Test B pre/postemergence morningglory; type: in vivo, Ipomoea hederacea
Method in brief: as §1

soybean = experiment: Test B pre/postemergence soybean; type: in vivo, Glycine max
Method in brief: as §1

velvetleaf = experiment: Test B pre/postemergence velvetleaf; type: in vivo, Abutilon theophrasti
Method in brief: as §1

wheat = experiment: Test B pre/postemergence wheat; type: in vivo, Triticum aestivum
Method in brief: as §1

wild oat = experiment: Test B pre/postemergence wild oat; type: in vivo, Avena fatua
Method in brief: as §1

purple nutsedge = experiment: Test B pre/postemergence purple nutsedge; type: in vivo, Cyperus rotundus; details: Preemergence
Method in brief: as §1

rice = experiment: Test B flood test rice; type: in vivo, Oryza sativa
Method in brief: (§2)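 Read-out is a visual response score from 0 (no effect) to 10 (complete control), assigned by comparison with untreated controls. Treatment was applied at the 2-leaf stage, and plants stayed in the greenhouse for twelve to sixteen days before scoring.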

smallflower flatsedge = experiment: Test B flood test smallflower flatsedge; type: in vivo, Cyperus difformis
Method in brief: as §2

duck salad = experiment: Test B flood test duck salad; type: in vivo, Heteranthera limosa
Method in brief: as §2

bamyardgrass = experiment: Test B flood test barnyardgrass; type: in vivo, Echinochloa crus-galli
Method in brief: as §2

[1] = Postemergence, Rate 250 g/ha, scale 0 to 10, 0 no effect, 10 complete control
[2] = Postemergence, Rate 1000 g/ha, scale 0 to 10 (0 no effect, 10 complete control)
[3] = Preemergence, Rate 125 g/ha, scale 0 to 10 (0 no effect, 10 complete control)
[4] = Preemergence, Rate 250 g/ha, scale of 0 to 10 where 0 is no effect and 10 is complete control
[5] = Preemergence, Rate 500 g/ha, scale 0 (no effect) to 10 (complete control)
[6] = Rate 125 g/ha, Postemergence, scale 0 to 10, 0 no effect, 10 complete control
[7] = Rate 500 g/ha, Postemergence, 0 to 10 scale (0 no effect, 10 complete control)
[8] = Rate 1000 g/ha, Preemergence, scale 0 to 10 (0 no effect, 10 complete control)
[9] = Rate 125 g/ha, Postemergence section (flood test species), scale 0 to 10, 0 no effect, 10 complete control
[10] = Rate 500 g/ha, Postemergence section of Table B, 0 to 10 scale (0 no effect, 10 complete control)
[11] = flood test, listed under Postemergence, Rate 250 g/ha, scale 0 to 10, 0 no effect, 10 complete control

Question: What does the source list for `COc1ccc(-n2c(=O)on(C(=O)N(C3=CCOCC3)C(C)C)c2=O)cc1` [Compound 6]?
Answer: Bedstraw plant response rating (bedstraw; [1]): 0; Bedstraw plant response rating (bedstraw; [2]): 3; Plant response rating, Bedstraw (bedstraw; [3]): 0; Plant response rating, Bedstraw (bedstraw; [4]): 0; Bedstraw plant response rating (bedstraw; [5]): 0; Bedstraw plant response rating (bedstraw; [6]): 0; Bedstraw plant response rating (bedstraw; [7]): 0; Plant response rating, Bedstraw (bedstraw; [8]): 0; Blackgrass plant response rating (blackgrass; [1]): 7; Blackgrass plant response rating (blackgrass; [2]): 7; Plant response rating, Blackgrass (blackgrass; [3]): 0; Plant response rating, Blackgrass (blackgrass; [4]): 0; Blackgrass plant response rating (blackgrass; [5]): 2; Blackgrass plant response rating (blackgrass; [6]): 4; Blackgrass plant response rating (blackgrass; [7]): 7; Plant response rating, Blackgrass (blackgrass; [8]): 7; B. signalgrass plant response rating (surinam grass; [1]): 2; B. signalgrass plant response rating (surinam grass; [2]): 7; Plant response rating, B. signalgrass (surinam grass; [3]): 0; Plant response rating, B. signalgrass (surinam grass; [4]): 0; B. signalgrass plant response rating (surinam grass; [5]): 0; B. signalgrass plant response rating (surinam grass; [6]): 0; B. signalgrass plant response rating (surinam grass; [7]): 5; Plant response rating, B. signalgrass (surinam grass; [8]): 5; Cocklebur plant response rating (cocklebur; [1]): 0; Cocklebur plant response rating (cocklebur; [2]): 0; Plant response rating, Cocklebur (cocklebur; [3]): 0; Plant response rating, Cocklebur (cocklebur; [4]): 0; Cocklebur plant response rating (cocklebur; [5]): 0; Cocklebur plant response rating (cocklebur; [6]): 0; Cocklebur plant response rating (cocklebur; [7]): 0; Plant response rating, Cocklebur (cocklebur; [8]): 2; Corn plant response rating (corn; [1]): 0; Corn plant response rating (corn; [2]): 4; Plant response rating, Corn (corn; [3]): 0; Plant response rating, Corn (corn; [4]): 1; Corn plant response rating (corn; [5]): 2; Corn plant response rating (corn; [6]): 0; Corn plant response rating (corn; [7]): 0; Plant response rating, Corn (corn; [8]): 5; Crabgrass plant response rating (crabgrass; [1]): 2; Crabgrass plant response rating (crabgrass; [2]): 7; Plant response rating, Crabgrass (crabgrass; [3]): 7; Crabgrass plant response rating (crabgrass; [5]): 9; Crabgrass plant response rating (crabgrass; [6]): 0; Crabgrass plant response rating (crabgrass; [7]): 5; Plant response rating, Crabgrass (crabgrass; [8]): 10; Giant foxtail plant response rating (giant foxtail; [1]): 4; Giant foxtail plant response rating (giant foxtail; [2]): 7; Plant response rating, Giant foxtail (giant foxtail; [3]): 3; Plant response rating, Giant foxtail (giant foxtail; [4]): 4; Giant foxtail plant response rating (giant foxtail; [5]): 9; Giant foxtail plant response rating (giant foxtail; [6]): 2; Giant foxtail plant response rating (giant foxtail; [7]): 5; Plant response rating, Giant foxtail (giant foxtail; [8]): 9; Morningglory plant response rating (morningglory; [1]): 2; Morningglory plant response rating (morningglory; [2]): 7; Plant response rating, Morningglory (morningglory; [3]): 0; Plant response rating, Morningglory (morningglory; [4]): 0; Morningglory plant response rating (morningglory; [5]): 0; Morningglory plant response rating (morningglory; [6]): 0; Morningglory plant response rating (morningglory; [7]): 5; Plant response rating, Morningglory (morningglory; [8]): 0; Soybean plant response rating (soybean; [1]): 3; Soybean plant response rating (soybean; [2]): 6; Plant response rating, Soybean (soybean; [3]): 0; Plant response rating, Soybean (soybean; [4]): 0; Soybean plant response rating (soybean; [5]): 0; Soybean plant response rating (soybean; [6]): 3; Plant response rating, Soybean (soybean; [8]): 0; Velvetleaf plant response rating (velvetleaf; [1]): 0; Velvetleaf plant response rating (velvetleaf; [2]): 1; Plant response rating, Velvetleaf (velvetleaf; [3]): 0; Plant response rating, Velvetleaf (velvetleaf; [4]): 2; Velvetleaf plant response rating (velvetleaf; [5]): 2; Velvetleaf plant response rating (velvetleaf; [6]): 0; Plant response rating, Velvetleaf (velvetleaf; [8]): 4; Wheat plant response rating (wheat; [1]): 0; Wheat plant response rating (wheat; [2]): 0; Plant response rating, Wheat (wheat; [3]): 0; Plant response rating, Wheat (wheat; [4]): 0; Wheat plant response rating (wheat; [5]): 0; Wheat plant response rating (wheat; [6]): 0; Plant response rating, Wheat (wheat; [8]): 3; Wild oats plant response rating (wild oat; [1]): 0; Wild oats plant response rating (wild oat; [2]): 4; Plant response rating, Wild oats (wild oat; [3]): 0; Plant response rating, Wild oats (wild oat; [4]): 0; Wild oats plant response rating (wild oat; [5]): 3; Wild oats plant response rating (wild oat; [6]): 0; Plant response rating, Wild oats (wild oat; [8]): 6; Plant response rating, Nutsedge (purple nutsedge; Rate 125 g/ha, scale 0 to 10 (0 no effect, 10 complete control)): 0; Plant response rating, Nutsedge (purple nutsedge; Rate 250 g/ha, scale of 0 to 10 where 0 is no effect and 10 is complete control): 0; Nutsedge plant response rating (purple nutsedge; Rate 500 g/ha, scale 0 (no effect) to 10 (complete control)): 0; Plant response rating, Nutsedge (purple nutsedge; Rate 1000 g/ha, scale 0 to 10 (0 no effect, 10 complete control)): 0; Rice plant response rating (rice; [2]): 3; Rice plant response rating (rice; [9]): 0; Rice plant response rating (rice; [10]): 0; Rice plant response rating (rice; [11]): 0; S. Flatsedge plant response rating (smallflower flatsedge; [2]): 3; S. Flatsedge plant response rating (smallflower flatsedge; [9]): 0; S. Flatsedge plant response rating (smallflower flatsedge; [11]): 0; Ducksalad plant response rating (duck salad; [2]): 0; Ducksalad plant response rating (duck salad; [9]): 0; Ducksalad plant response rating (duck salad; [10]): 0; Ducksalad plant response rating (duck salad; [11]): 0; Barnyardgrass plant response rating (bamyardgrass; [2]): 8; Barnyardgrass plant response rating (bamyardgrass; [9]): 0; Barnyardgrass plant response rating (bamyardgrass; [10]): 0; Barnyardgrass plant response rating (bamyardgrass; [11]): 0

— US6737383B1, “Herbicidal oxadiazolidines” (priority 1999, dated 2004)
